Values of other authors, collected in US20180263245A1, “WATER-BASED DISINFECTANT” (priority 2015, published 2018).

How the values were obtained:
[1] = test system: bacteria; conditions: without the Cu π-complex
[2] = EPA

In the case of `CCCCCCCCCCCC[N+](C)(C)Cc1ccccc1.[Cl-]` [C12 Quaternary Ammonium Chloride, Dodecyl Dimethyl Benzyl Ammonium Chloride], the “bacterial reduction versus FDA minimum performance standards” value [1] is given as “exceeded the FDA-indicated minimum performance standards”, the genetic toxicity [2] is given as “does not believe it is a genetic toxicant” and the reproductive risks [2] is given as “does not believe it poses unacceptable reproductive risks”. The tumors [2] was “negative for introduction of tumors”.
